Test results from patent US10906889B2, “Polycyclic inhibitors of cyclin-dependent kinase 7 (CDK7)” (Dana-Farber Cancer Institute, Inc., priority 2013, dated 2021).
pIC50: −log10 of the molar value. Where two headings read alike, the source gives them in different places.

Columns and labels:
[1] = target: CDK5/p25 (Homo sapiens, UniProt Q00535); assay: Z'-Lyte kinase assay (Life Technologies), CDK5/p25; details: for inhibition at 0.1 µM: read-out: CDK5^a,c percent inhibition; for inhibition at 1 µM: read-out: CDK5^b,c percent inhibition
Protocol: (§1) Compounds of the invention were assayed for activity against a variety of different kinases at Life Technologies™ (Grand Island, N.Y.) using their commercially available Adapta® (for CDK7, CDK9/cyclin T1, and IRAK1 kinases), Z′-Lyte® (for CDK1, CDK2, CDK5/p25, CDK5/p35, JNK1 and JNK2 kinases), and LanthaScreen Eu® (for CDK8, CDK9/cyclin K and MLK3) kinase assay services. Test compounds were tested at 100 nM and 1 μM final concentrations in 1% DMSO against all kinases except CDK7. For CDK7, test compounds were tested at concentrations ranging from 10 μM to 0.514 nM in a series of 3-fold serial dilutions. […] The co-factors used for each kinase in the assays were as follows: CDK1: cyclin B; CDK2: cyclin A; CDK5: p25 or p35 as indicated; CDK7: cyclin H and MNAT1; CDK8: cyclin C; CDK9: cyclin K or cyclin T1 as indicated; IRAK1: Histone H3 (1-20) peptide; JNK1: none required; JNK2: none required; MLK3: none required.

[2] = target: CDK9/cyclin T1 (Homo sapiens, UniProt P50750); assay: Adapta kinase assay (Life Technologies), CDK9/cyclin T1; details: for inhibition at 0.1 µM: read-out: CDK9^a,e percent inhibition; for inhibition at 1 µM: read-out: CDK9^b,e percent inhibition
Protocol: as §1

[3] = target: T1, CDK2 (Homo sapiens, UniProt P24941); assay: Z'-Lyte kinase assay (Life Technologies), CDK2; format: biochemical; details: co-factor cyclin A; for inhibition at 0.1 µM: compound tested at 100 nM, read-out: CDK2^a percent inhibition; for inhibition at 1 µM: compound tested at 1 μM, read-out: CDK2^b percent inhibition
T1 construct: purchased Life Technologies (assay service)

[4] = target: CDK9/cyclin K (Homo sapiens, UniProt P50750); assay: LanthaScreen Eu kinase assay (Life Technologies), CDK9/cyclin K
Protocol: as §1

[5] = target: T2, CDK7 (Homo sapiens, UniProt P50613); assay: Adapta kinase assay (Life Technologies), CDK7; format: biochemical
T2 construct: purchased Life Technologies (assay service)
T2 sequence (P50613 whole entry): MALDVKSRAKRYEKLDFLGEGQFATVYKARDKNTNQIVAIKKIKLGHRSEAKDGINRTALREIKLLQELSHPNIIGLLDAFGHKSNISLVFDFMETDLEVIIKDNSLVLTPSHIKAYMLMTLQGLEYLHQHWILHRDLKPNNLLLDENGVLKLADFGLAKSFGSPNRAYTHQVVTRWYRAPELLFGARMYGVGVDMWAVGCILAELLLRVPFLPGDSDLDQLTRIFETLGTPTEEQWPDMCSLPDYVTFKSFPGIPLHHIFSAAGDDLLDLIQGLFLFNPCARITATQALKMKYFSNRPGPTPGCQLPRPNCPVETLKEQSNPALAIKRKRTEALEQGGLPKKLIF
T2 sequence (P51946 whole entry partner): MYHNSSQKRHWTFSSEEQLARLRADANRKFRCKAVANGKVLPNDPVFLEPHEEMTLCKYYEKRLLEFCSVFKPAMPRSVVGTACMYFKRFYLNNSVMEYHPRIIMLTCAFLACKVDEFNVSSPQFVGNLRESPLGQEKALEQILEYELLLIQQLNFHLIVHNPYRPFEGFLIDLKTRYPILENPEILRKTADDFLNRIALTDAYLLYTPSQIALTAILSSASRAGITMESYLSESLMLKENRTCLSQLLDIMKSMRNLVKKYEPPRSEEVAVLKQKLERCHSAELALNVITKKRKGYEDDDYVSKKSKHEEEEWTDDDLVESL
T2 sequence (P51948 whole entry partner): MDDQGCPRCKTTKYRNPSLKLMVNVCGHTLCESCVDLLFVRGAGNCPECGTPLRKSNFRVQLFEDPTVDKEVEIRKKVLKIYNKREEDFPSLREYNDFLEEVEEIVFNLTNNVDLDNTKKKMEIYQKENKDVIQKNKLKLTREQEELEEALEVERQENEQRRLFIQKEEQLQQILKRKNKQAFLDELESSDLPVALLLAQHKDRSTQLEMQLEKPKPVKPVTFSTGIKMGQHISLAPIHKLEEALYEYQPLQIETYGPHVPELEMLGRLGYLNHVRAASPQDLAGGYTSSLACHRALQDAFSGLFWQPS

[6] = target: T3, CDK8 (Homo sapiens, UniProt P49336); assay: LanthaScreen Eu kinase assay (Life Technologies), CDK8; format: binding; details: co-factor cyclin C; for inhibition at 0.1 µM: compound tested at 100 nM, read-out: CDK8^a percent inhibition; for inhibition at 1 µM: compound tested at 1 μM, read-out: CDK8^b percent inhibition
T3 construct: purchased Life Technologies (assay service)
T3 sequence (P49336 whole entry): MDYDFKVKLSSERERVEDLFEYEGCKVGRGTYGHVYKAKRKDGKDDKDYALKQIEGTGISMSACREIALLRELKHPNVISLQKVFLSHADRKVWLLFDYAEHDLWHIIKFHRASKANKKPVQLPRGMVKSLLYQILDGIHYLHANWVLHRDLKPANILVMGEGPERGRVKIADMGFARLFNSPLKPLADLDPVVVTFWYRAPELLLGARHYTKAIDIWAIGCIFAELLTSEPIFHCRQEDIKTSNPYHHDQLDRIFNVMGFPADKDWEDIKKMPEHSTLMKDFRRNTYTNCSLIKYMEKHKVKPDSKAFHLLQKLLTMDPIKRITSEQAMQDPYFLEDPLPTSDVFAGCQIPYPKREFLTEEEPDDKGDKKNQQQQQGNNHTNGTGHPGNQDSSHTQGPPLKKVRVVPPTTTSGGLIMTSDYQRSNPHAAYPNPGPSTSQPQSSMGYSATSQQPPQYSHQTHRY
T3 sequence (P24863 whole entry partner): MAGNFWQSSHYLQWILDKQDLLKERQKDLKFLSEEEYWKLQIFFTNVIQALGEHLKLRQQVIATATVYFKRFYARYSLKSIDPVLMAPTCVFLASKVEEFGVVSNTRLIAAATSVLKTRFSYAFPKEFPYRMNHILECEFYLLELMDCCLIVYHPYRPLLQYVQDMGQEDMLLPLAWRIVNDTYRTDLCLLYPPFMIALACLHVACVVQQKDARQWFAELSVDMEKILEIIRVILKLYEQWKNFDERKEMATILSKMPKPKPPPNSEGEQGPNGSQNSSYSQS

[7] = test system: MCF10A; assay: Cell proliferation (CellTiter-Glo, 72 hour), MCF10A; format: cell-based; details: Homo sapiens, MCF-10A, breast cancer cell lines table, read-out: MCF10A inhibition of proliferation (IC50)
[8] = target: T4, JNK1 (Homo sapiens, UniProt P45983); assay: Z'-Lyte kinase assay (Life Technologies), JNK1; format: biochemical; details: for inhibition at 0.1 µM: compound tested at 100 nM, read-out: JNK1^a percent inhibition; for inhibition at 1 µM: compound tested at 1 μM, read-out: JNK1^b percent inhibition
T4 construct: purchased Life Technologies (assay service)

[9] = test system: A673; assay: Cell proliferation (CellTiter-Glo, 72 hour), A673; format: cell-based; details: Homo sapiens, Ewing's sarcoma cell line, read-out: A673 inhibition of proliferation (IC50)
[10] = test system: Jurkat cells; assay: Cell proliferation (CellTiter-Glo, 72 hour), Jurkat; format: cell-based; details: Homo sapiens, blood cancer cell line
[11] = test system: SAOS; assay: Cell proliferation (CellTiter-Glo, 72 hour), SAOS; format: cell-based; details: osteosarcoma cell line, read-out: SAOS inhibition of proliferation (IC50)
[12] = target: CDK5/p35 (Homo sapiens, UniProt Q00535); assay: Z'-Lyte kinase assay (Life Technologies), CDK5/p35; details: for inhibition at 0.1 µM: read-out: CDK5^a,d percent inhibition; for inhibition at 1 µM: read-out: CDK5^b,d percent inhibition
Sequence of CDK5/p35 (Q00535 whole entry): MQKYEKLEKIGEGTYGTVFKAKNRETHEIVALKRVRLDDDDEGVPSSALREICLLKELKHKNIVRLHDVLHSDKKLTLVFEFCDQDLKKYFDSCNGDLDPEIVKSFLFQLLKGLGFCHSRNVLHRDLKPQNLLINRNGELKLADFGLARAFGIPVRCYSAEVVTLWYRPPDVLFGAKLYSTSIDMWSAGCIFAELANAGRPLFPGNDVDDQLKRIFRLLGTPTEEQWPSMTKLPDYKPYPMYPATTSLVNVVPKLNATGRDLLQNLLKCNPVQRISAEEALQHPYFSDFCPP
Sequence of CDK5/p35 (Q15078 whole entry partner): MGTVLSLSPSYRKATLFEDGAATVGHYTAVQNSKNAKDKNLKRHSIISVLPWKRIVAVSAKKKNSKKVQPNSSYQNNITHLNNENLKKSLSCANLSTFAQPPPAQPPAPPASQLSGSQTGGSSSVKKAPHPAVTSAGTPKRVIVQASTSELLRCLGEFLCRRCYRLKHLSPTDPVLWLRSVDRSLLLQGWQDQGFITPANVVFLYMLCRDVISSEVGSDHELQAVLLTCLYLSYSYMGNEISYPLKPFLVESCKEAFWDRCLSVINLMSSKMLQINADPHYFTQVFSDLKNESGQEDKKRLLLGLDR
Protocol: as §1

[13] = test system: MDA-MB231; assay: Cell proliferation (CellTiter-Glo, 72 hour), MDA-MB231; format: cell-based; details: Homo sapiens, MDA-MB-231, breast cancer cell line, read-out: MDA-MB231 inhibition of proliferation (IC50)
[14] = target: T5, MLK3 (Homo sapiens, UniProt Q16584); assay: LanthaScreen Eu kinase assay (Life Technologies), MLK3; format: binding; details: for pIC50: Table 2, read-out: MLK3 (calculated IC50); for inhibition at 0.1 µM: compound tested at 100 nM, read-out: MLK3^a percent inhibition
T5 construct: purchased Life Technologies (assay service)
T5 sequence (Q16584 whole entry): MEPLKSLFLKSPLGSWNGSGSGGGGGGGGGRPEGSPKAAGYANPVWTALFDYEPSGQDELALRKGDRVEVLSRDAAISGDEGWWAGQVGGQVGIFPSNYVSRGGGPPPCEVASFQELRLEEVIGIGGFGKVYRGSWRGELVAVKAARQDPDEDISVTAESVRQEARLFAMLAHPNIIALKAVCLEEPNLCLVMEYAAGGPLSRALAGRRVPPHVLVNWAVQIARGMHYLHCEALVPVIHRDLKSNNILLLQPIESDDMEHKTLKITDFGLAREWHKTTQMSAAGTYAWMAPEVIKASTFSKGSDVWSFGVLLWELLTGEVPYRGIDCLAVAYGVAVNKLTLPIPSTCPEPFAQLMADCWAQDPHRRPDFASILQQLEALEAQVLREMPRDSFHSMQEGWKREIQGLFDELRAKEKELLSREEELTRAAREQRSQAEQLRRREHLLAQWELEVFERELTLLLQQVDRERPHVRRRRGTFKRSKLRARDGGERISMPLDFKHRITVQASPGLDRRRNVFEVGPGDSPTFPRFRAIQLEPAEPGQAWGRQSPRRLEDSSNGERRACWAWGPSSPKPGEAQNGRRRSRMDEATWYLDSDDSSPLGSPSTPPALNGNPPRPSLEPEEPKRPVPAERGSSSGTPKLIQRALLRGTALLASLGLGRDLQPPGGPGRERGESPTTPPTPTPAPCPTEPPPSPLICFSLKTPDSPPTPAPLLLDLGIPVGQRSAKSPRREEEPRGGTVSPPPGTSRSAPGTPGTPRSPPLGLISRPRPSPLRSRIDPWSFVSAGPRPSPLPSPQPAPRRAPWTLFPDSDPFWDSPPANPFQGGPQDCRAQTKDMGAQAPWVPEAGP

[15] = test system: MNNG-HOS Cl #5; assay: Cell proliferation (CellTiter-Glo, 72 hour), MNNG-HOS Cl #5; format: cell-based; details: osteosarcoma cell line, read-out: MNNG-HOS Cl#5 inhibition of proliferation (IC50)
[16] = test system: SK-ES-1; assay: Cell proliferation (CellTiter-Glo, 72 hour), SK-ES-1; format: cell-based; details: Homo sapiens, SK-ES1, Ewing's sarcoma cell line, read-out: SK-ES-1 inhibition of proliferation (IC50)
[17] = test system: 143B; assay: Cell proliferation (CellTiter-Glo, 72 hour), 143B; format: cell-based; details: Homo sapiens, osteosarcoma cell line, read-out: 143B inhibition of proliferation (IC50)
[18] = test system: RS4-11; assay: Cell proliferation (CellTiter-Glo, 72 hour), RS4-11; format: cell-based; details: Homo sapiens, blood cancer cell line, read-out: RS4-11 inhibition of proliferation (IC50)
[19] = test system: SKBR3; assay: Cell proliferation (CellTiter-Glo, 72 hour), SKBR3; format: cell-based; details: Homo sapiens, SK-BR-3, breast cancer cell line, read-out: SKBR3 inhibition of proliferation (IC50)
[20] = test system: MCF7; assay: Cell proliferation (CellTiter-Glo, 72 hour), MCF7; format: cell-based; details: Homo sapiens, breast cancer cell line, read-out: MCF7 inhibition of proliferation (IC50)
[21] = target: T6, IRAK1 (Homo sapiens, UniProt P51617); assay: Adapta kinase assay (Life Technologies), IRAK1; format: biochemical; details: for inhibition at 0.1 µM: compound tested at 100 nM, read-out: IRAK1^a percent inhibition; for inhibition at 1 µM: compound tested at 1 μM, read-out: IRAK1^b percent inhibition
T6 construct: purchased Life Technologies (assay service)
T6 sequence (P51617 whole entry): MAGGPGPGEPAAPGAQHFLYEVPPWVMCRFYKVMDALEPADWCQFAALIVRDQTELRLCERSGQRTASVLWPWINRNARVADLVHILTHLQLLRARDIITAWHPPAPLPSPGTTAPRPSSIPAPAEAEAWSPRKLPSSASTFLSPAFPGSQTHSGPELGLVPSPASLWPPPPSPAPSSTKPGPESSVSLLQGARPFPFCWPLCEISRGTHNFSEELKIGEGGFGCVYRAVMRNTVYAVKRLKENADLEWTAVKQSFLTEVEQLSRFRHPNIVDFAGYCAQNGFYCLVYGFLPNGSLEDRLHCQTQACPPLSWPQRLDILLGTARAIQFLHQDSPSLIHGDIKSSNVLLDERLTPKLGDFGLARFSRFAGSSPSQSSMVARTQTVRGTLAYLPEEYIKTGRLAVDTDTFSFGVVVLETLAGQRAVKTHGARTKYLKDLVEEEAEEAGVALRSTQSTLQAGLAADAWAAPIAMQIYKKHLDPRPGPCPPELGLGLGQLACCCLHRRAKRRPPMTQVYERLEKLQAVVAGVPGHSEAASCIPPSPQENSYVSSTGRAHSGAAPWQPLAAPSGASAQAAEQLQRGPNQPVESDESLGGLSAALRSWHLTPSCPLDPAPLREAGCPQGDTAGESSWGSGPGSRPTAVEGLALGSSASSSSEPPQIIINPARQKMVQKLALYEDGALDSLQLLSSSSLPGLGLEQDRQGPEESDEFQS

[22] = test system: RD-ES; assay: Cell proliferation (CellTiter-Glo, 72 hour), RD-ES; format: cell-based; details: Ewing's sarcoma cell line, read-out: RD-ES inhibition of proliferation (IC50)
[23] = test system: hTERT-HME1; assay: Cell proliferation (CellTiter-Glo, 72 hour), hTERT-HME1; format: cell-based; details: breast cancer cell lines table, read-out: hTERT-HME1 inhibition of proliferation (IC50)
[24] = test system: Hs863T; assay: Cell proliferation (CellTiter-Glo, 72 hour), Hs863T; format: cell-based; details: Ewing's sarcoma cell line, read-out: Hs863T inhibition of proliferation (IC50)
[25] = target: T7, JNK2 (Homo sapiens, UniProt P45984); assay: Z'-Lyte kinase assay (Life Technologies), JNK2; format: biochemical; details: for inhibition at 0.1 µM: compound tested at 100 nM, read-out: JNK2^a percent inhibition; for inhibition at 1 µM: compound tested at 1 μM, read-out: JNK2^b percent inhibition
T7 construct: purchased Life Technologies (assay service)

[26] = test system: T47D; assay: Cell proliferation (CellTiter-Glo, 72 hour), T47D; format: cell-based; details: Homo sapiens, breast cancer cell line, read-out: T47D inhibition of proliferation (IC50)
[27] = target: T8, CDK1 (Homo sapiens, UniProt P06493); assay: Z'-Lyte kinase assay (Life Technologies), CDK1; format: biochemical; details: co-factor cyclin B; for inhibition at 0.1 µM: compound tested at 100 nM, read-out: CDK1^a percent inhibition; for inhibition at 1 µM: compound tested at 1 μM, read-out: CDK1^b percent inhibition
T8 construct: purchased Life Technologies (assay service)
T8 sequence (P06493 whole entry): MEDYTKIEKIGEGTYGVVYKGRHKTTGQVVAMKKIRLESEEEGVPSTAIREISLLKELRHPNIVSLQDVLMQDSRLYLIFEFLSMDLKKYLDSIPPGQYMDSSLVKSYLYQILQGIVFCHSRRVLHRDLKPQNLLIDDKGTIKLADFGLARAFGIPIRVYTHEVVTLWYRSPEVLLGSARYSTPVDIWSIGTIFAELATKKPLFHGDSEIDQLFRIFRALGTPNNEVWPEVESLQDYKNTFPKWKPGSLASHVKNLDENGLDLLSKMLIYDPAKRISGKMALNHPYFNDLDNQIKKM
T8 sequence (P14635 whole entry partner): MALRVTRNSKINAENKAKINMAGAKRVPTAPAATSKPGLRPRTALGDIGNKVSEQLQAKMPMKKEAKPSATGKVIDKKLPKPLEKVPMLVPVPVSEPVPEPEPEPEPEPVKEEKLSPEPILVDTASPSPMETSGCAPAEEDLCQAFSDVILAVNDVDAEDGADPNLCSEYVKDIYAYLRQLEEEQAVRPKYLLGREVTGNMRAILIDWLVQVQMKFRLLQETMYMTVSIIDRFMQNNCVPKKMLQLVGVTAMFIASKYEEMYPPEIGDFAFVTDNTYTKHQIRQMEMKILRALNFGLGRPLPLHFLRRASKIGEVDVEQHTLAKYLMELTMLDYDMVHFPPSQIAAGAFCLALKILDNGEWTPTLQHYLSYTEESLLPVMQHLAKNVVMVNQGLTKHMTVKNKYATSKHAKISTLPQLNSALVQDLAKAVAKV

[28] = test system: Hs822T; assay: Cell proliferation (CellTiter-Glo, 72 hour), Hs822T; format: cell-based; details: Ewing's sarcoma cell line, read-out: Hs822T inhibition of proliferation (IC50)
[29] = test system: THP-1; assay: Cell proliferation (CellTiter-Glo, 72 hour), THP-1; format: cell-based; details: Homo sapiens, blood cancer cell line, read-out: THP-1 inhibition of proliferation (IC50)
[30] = test system: HL60; assay: Cell proliferation (CellTiter-Glo, 72 hour), HL60; format: cell-based; details: Homo sapiens, HL-60, blood cancer cell line, read-out: HL60 inhibition of proliferation (IC50)
[31] = test system: MV4-11; assay: Cell proliferation (CellTiter-Glo, 72 hour), MV4-11; format: cell-based; details: Homo sapiens, blood cancer cell line, read-out: MV4-11 inhibition of proliferation (IC50)
[32] = Table 1C, co-factors cyclin H and MNAT1, read-out: CDK7 IC50
[33] = Table 2, co-factors cyclin H and MNAT1, read-out: CDK7 (calculated IC50)

CN(C)C/C=C/C(=O)Nc1ccc(C(=O)NC2CCCC(Nc3ncc(Cl)c(-c4c[nH]c5ccccc45)n3)C2)cc1 (stereo not shown) [Compound 100, (E)-N-(3-((5-chloro-4-(1H-indol-3-yl)pyrimidin-2-yl)amino)cyclohexyl)-4-(4-(dimethylamino)but-2-enamido)benzamide]
pIC50 [1]: < 6.00 | pIC50 [2]: 6.00 to 7.00 | pIC50 ([3]; Table 2, read-out: CDK2 (calculated IC50)): < 6.00 | pIC50 [4]: 6.00 to 7.00 | pIC50 [5, 32]: > 7.00 | pIC50 [5, 33]: > 7.00 | pIC50 ([6]; Table 2, read-out: CDK8 (calculated IC50)): 6.00 to 7.00

CN(C)C/C=C/C(=O)Nc1ccc(C(=O)N[C@H]2CCC[C@@H](Nc3ncc(Cl)c(-c4c[nH]c5ccccc45)n3)C2)cc1 [Compound 102, N-((1S,3R)-3-(5-chloro-4-(1H-indol-3-yl)pyrimidin-2-ylamino)cyclohexyl)-4-((E)-4-(dimethylamino)but-2-enamido)benzamide]
pIC50 [7]: > 6.30 | pIC50 [1]: < 6.00 | inhibition at 0.1 µM [1]: < 50% | inhibition at 1 µM [1]: < 50% | inhibition at 0.1 µM [8]: < 50% | inhibition at 1 µM [8]: 50 to 70% | inhibition at 0.1 µM [2]: < 50% | inhibition at 1 µM [2]: < 50% | inhibition at 0.1 µM [3]: < 50% | inhibition at 1 µM [3]: < 50% | pIC50 [9]: > 6.30 | pIC50 [10]: > 6.30 | pIC50 [11]: > 6.30 | inhibition at 0.1 µM [12]: < 50% | inhibition at 1 µM [12]: < 50% | pIC50 [13]: > 6.30 | pIC50 [14]: < 6.00 | inhibition at 0.1 µM [14]: < 50% | pIC50 [15]: < 5.30 | pIC50 [16]: > 6.30 | pIC50 [17]: < 5.30 | pIC50 [18]: > 6.30 | pIC50 [19]: < 5.30 | pIC50 [20]: < 5.30 | inhibition at 0.1 µM [21]: < 50% | inhibition at 1 µM [21]: < 50% | pIC50 [22]: > 6.30 | pIC50 [23]: > 6.30 | pIC50 [24]: < 5.30 | inhibition at 0.1 µM [25]: < 50% | inhibition at 1 µM [25]: 50 to 70% | pIC50 [26]: < 5.30 | inhibition at 0.1 µM [27]: < 50% | inhibition at 1 µM [27]: < 50% | pIC50 [28]: < 5.30 | pIC50 [5, 32]: > 7.00 | pIC50 [5, 33]: > 7.00 | inhibition at 0.1 µM [6]: < 50% | inhibition at 1 µM [6]: < 50% | pIC50 [29]: > 6.30 | pIC50 [30]: > 6.30 | pIC50 [31]: > 6.30

CN(C)C/C=C/C(=O)Nc1ccc(C(=O)N[C@H]2CCC[C@H](Nc3ncc(Cl)c(-c4c[nH]c5ccccc45)n3)C2)cc1 [compound 103]
pIC50 [7]: > 6.30 | pIC50 [1]: < 6.00 | inhibition at 0.1 µM [1]: < 50% | inhibition at 1 µM [1]: < 50% | inhibition at 0.1 µM [8]: < 50% | inhibition at 1 µM [8]: 50 to 70% | inhibition at 0.1 µM [2]: < 50% | inhibition at 1 µM [2]: 50 to 70% | inhibition at 0.1 µM [3]: < 50% | inhibition at 1 µM [3]: < 50% | pIC50 [9]: > 6.30 | pIC50 [10]: 5.30 to 6.30 | pIC50 [11]: 5.30 to 6.30 | inhibition at 0.1 µM [12]: < 50% | inhibition at 1 µM [12]: < 50% | pIC50 [13]: 5.30 to 6.30 | pIC50 [14]: < 6.00 | inhibition at 0.1 µM [14]: < 50% | pIC50 [15]: < 5.30 | pIC50 [16]: 5.30 to 6.30 | pIC50 [17]: < 5.30 | pIC50 [18]: 5.30 to 6.30 | pIC50 [19]: < 5.30 | pIC50 [20]: 5.30 to 6.30 | inhibition at 0.1 µM [21]: < 50% | inhibition at 1 µM [21]: < 50% | pIC50 [22]: 5.30 to 6.30 | pIC50 [23]: 5.30 to 6.30 | pIC50 [24]: < 5.30 | inhibition at 0.1 µM [25]: < 50% | inhibition at 1 µM [25]: > 70% | pIC50 [26]: < 5.30 | inhibition at 0.1 µM [27]: < 50% | inhibition at 1 µM [27]: < 50% | pIC50 [28]: < 5.30 | pIC50 [5, 32]: 6.00 to 7.00 | pIC50 [5, 33]: 6.00 to 7.00 | inhibition at 0.1 µM [6]: < 50% | inhibition at 1 µM [6]: < 50% | pIC50 [29]: 5.30 to 6.30 | pIC50 [30]: 5.30 to 6.30 | pIC50 [31]: > 6.30
